PubChem BioAssay (NCI)
Several values for one entry are separate records, joined by “and”; a condition that tells them apart may be missing. Identical values can stand only once.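 Briefly, cells in 96-well plates were exposed to five compound concentrations for 48 h, and endpoints were estimated by linear interpolation. GI50 is the concentration that inhibits growth by half. At the TGI there is no net growth.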

Tests used:
Experiment in all cases: growth of human tumour cells (NCI), 48 h
[1] = system: HOP-92 NSCLC
[2] = system: KM12 colon
[3] = system: SN12C renal
[4] = system: CCRF-CEM leukemia
[5] = system: SK-MEL-5 melanoma
[6] = system: SNB-19 CNS
[7] = system: CAKI-1 renal
[8] = system: SF-268 CNS
[9] = system: EKVX NSCLC
[10] = system: MOLT-4 leukemia

`C/C(=N\NS(=O)(=O)c1ccccc1)c1ccc[n+]([O-])n1` showed a TGI [1] of over 100 µM, a TGI [2] of over 100 µM and a TGI [3] of over 100 µM. The TGI [4] was 64.6 µM, the TGI [5] was over 100 µM and the TGI [6] was over 100 µM. For the same compound, the TGI [7] was over 100 µM, the TGI [8] was over 100 µM and the TGI [9] was over 100 µM. The TGI [10] was over 100 µM.
Work on `O=C(CN1CCN(c2ccccn2)CC1)Nc1ccc(Cl)cc1C(=O)c1ccccc1Cl` yielded a GI50 [1] of 2.52 µM, a TGI [1] of 53.7 µM and a GI50 [2] of 7.73 µM. It also gave a TGI [2] of over 100 µM, a GI50 [3] of over 100 µM and a TGI [3] of over 100 µM. The GI50 [4] was 9.99 µM, the TGI [4] was over 100 µM and the GI50 [5] was 10.2 µM. For the same compound, the TGI [5] was 38.3 µM, the GI50 [6] was 79.6 µM and the TGI [6] was over 100 µM. The GI50 [7] was over 100 µM, the TGI [7] was over 100 µM and the GI50 [8] was over 100 µM. It also gave a TGI [8] of over 100 µM, a GI50 [9] of 45.4 µM and a TGI [9] of over 100 µM. The GI50 [10] was 5.49 µM and the TGI [10] was over 100 µM.
`CCN1C(=O)N(CC)C2C1NN=c1s/c(=C\c3cnc(C)n3C)c(=O)n12` (centres undefined) gave a GI50 [1] of 4.85 µM, a TGI [1] of 96.1 µM and a GI50 [2] of 1.22 µM. The TGI [2] was over 100 µM, the GI50 [3] was 4.64 µM and the TGI [3] was over 100 µM. The GI50 [4] was 2.75 µM, the TGI [4] was over 100 µM and the GI50 [5] was 1.2 µM. The TGI [5] was 11.1 µM, the GI50 [6] was 3.94 µM and the TGI [6] was over 100 µM. For the same compound, the GI50 [7] was 0.7 µM, the TGI [7] was over 100 µM and the GI50 [8] was 4.1 µM. The TGI [8] was over 100 µM, the GI50 [9] was 3.65 µM and the TGI [9] was over 100 µM. It also gave a GI50 [10] of 3.24 µM and a TGI [10] of over 100 µM.
`CCc1cccc(CC)c1NC(=O)C1=CNC(C)=C(C(=O)Nc2c(CC)cccc2CC)C1c1ccc(O)c(OC)c1` (centres undefined) gave a TGI [1] of over 100 µM, a TGI [2] of 87.4 µM and a TGI [3] of over 100 µM. For the same compound, the TGI [4] was 61 µM, the TGI [5] was over 100 µM and the TGI [6] was over 100 µM. For the same compound, the TGI [7] was over 100 µM, the TGI [8] was over 100 µM and the TGI [9] was over 100 µM. The TGI [10] was 82.9 µM.
`CC(C)CC1NC(=O)C(C(C)C)NC(=O)CC(C)COC(=O)C(CC(C)C)N(C)C(=O)C(C(C)C)NC(=O)C(C(C)C)OC1=O` (centres undefined) was tested, and the TGI [1] was over 50 µM, the TGI [2] was over 50 µM and the TGI [3] was over 50 µM. For the same compound, the TGI [4] was over 50 µM, the TGI [5] was over 50 µM and the TGI [6] was over 50 µM. The TGI [7] was over 50 µM, the TGI [8] was over 50 µM and the TGI [9] was over 50 µM. It also gave a TGI [10] of over 50 µM.
Compound `COc1c(OC2OC(CO)C(O)C(O)C2O)cc2c(c1OC)-c1ccc(OC)c(=O)cc1[C@@H](NC(C)=O)CC2` (some centres undefined) has a TGI [1] of over 100 µM, a TGI [2] of over 100 µM and a TGI [3] of over 100 µM. For the same compound, the TGI [4] was over 100 µM, the TGI [5] was over 94.5 µM and the TGI [6] was over 100 µM. It also gave a TGI [7] of over 100 µM, a TGI [8] of over 56.2 µM and a TGI [9] of over 100 µM. For the same compound, the TGI [10] was over 100 µM.
With `Cc1c(C(=O)Nc2ccc(Cl)cc2)nc(N)nc1-c1cccc(Cl)c1` the TGI [1] was 95.6 µM, the TGI [2] was over 100 µM and the TGI [3] was over 100 µM. The TGI [4] was over 100 µM, the TGI [5] was over 100 µM and the TGI [6] was over 100 µM. It also gave a TGI [7] of over 100 µM, a TGI [8] of over 100 µM and a TGI [9] of over 100 µM. For the same compound, the TGI [10] was over 100 µM.
`CC1SC(c2cccc(Cl)c2)N(NC(=O)C(O)c2ccccc2)C1=O` (centres undefined) gave a GI50 [1] of over 100 µM, a TGI [1] of over 100 µM and a GI50 [2] of over 100 µM. For the same compound, the TGI [2] was over 100 µM, the GI50 [3] was over 100 µM and the TGI [3] was over 100 µM. It also gave a GI50 [4] of over 100 µM, a TGI [4] of over 100 µM and a GI50 [5] of over 100 µM. It also gave a TGI [5] of over 100 µM, a GI50 [6] of over 100 µM and a TGI [6] of over 100 µM. It also gave a GI50 [7] of over 100 µM, a TGI [7] of over 100 µM and a GI50 [8] of over 100 µM. It also gave a TGI [8] of over 100 µM, a GI50 [9] of over 100 µM and a TGI [9] of over 100 µM. The GI50 [10] was over 100 µM and the TGI [10] was over 100 µM.
`CCCC(CCC)C(=O)O` gave a GI50 [1] of over 100 µM, a TGI [1] of over 20000 µM and a GI50 [2] of over 100 µM. For the same compound, the TGI [2] was over 20000 µM, the GI50 [3] was over 20000 µM and the TGI [3] was over 20000 µM. For the same compound, the GI50 [4] was over 100 µM, the TGI [4] was over 20000 µM and the TGI [5] was 9570 µM. The GI50 [6] was over 20000 µM, the TGI [6] was over 20000 µM and the GI50 [7] was over 100 µM. For the same compound, the TGI [7] was over 20000 µM, the GI50 [8] was over 100 µM and the TGI [8] was > 100 µM and 12000 µM. It also gave a GI50 [9] of over 20000 µM, a TGI [9] of over 20000 µM and a GI50 [10] of over 100 µM. For the same compound, the TGI [10] was over 20000 µM.
Work on `CN1C(=O)C(C)(C)Oc2c(-c3cn(C)c(=O)c4[nH]ccc34)cc(S(C)(=O)=O)cc21` yielded a GI50 [1] of 0.408 µM, a TGI [1] of over 100 µM and a GI50 [2] of 1.44 µM. It also gave a TGI [2] of 16.1 µM, a GI50 [3] of 2.68 µM and a TGI [3] of over 100 µM. For the same compound, the GI50 [4] was 1.45 µM, the TGI [4] was over 100 µM and the GI50 [5] was 1.34 µM. The TGI [5] was 3.27 µM, the GI50 [6] was 1.6 µM and the TGI [6] was over 100 µM. It also gave a GI50 [7] of 0.271 µM, a TGI [7] of 16.1 µM and a GI50 [8] of 3.99 µM. It also gave a TGI [8] of over 100 µM, a GI50 [9] of 0.972 µM and a TGI [9] of over 100 µM. For the same compound, the GI50 [10] was 1.42 µM and the TGI [10] was over 100 µM.
Work on `CC(=O)Nc1cc(CN2CCCCC2)c(O)c2ncccc12` yielded a TGI [1] of over 100 µM, a TGI [2] of over 100 µM and a TGI [3] of 70.9 µM. The TGI [4] was over 100 µM, the TGI [5] was over 100 µM and the TGI [6] was over 100 µM. It also gave a TGI [7] of over 100 µM, a TGI [8] of 79.2 µM and a TGI [9] of over 100 µM. It also gave a TGI [10] of 43.1 µM.
For `C=CC(=O)Nc1cccc(Nc2nc(Nc3ccc(N4CCN(C(C)=O)CC4)cc3OC)ncc2C(F)(F)F)c1`, the GI50 [1] was 0.787 µM and 0.525 µM, the TGI [1] was 4.88 µM and 4.21 µM and the GI50 [2] was 7.48 µM and 5.58 µM. For the same compound, the TGI [2] was > 10 µM and 38.6 µM, the GI50 [3] was 4.02 µM and 2.95 µM and the TGI [3] was > 10 µM and 54.8 µM. For the same compound, the GI50 [4] was 3.62 µM and 4.32 µM, the TGI [4] was over 65.5 µM and the GI50 [5] was 4.12 µM and 4.3 µM. For the same compound, the TGI [5] was > 10 µM and 17.9 µM, the GI50 [6] was 5.83 µM and the TGI [6] was over 100 µM. For the same compound, the GI50 [7] was 2.32 µM and 1.64 µM, the TGI [7] was > 10 µM and 6.01 µM and the GI50 [8] was 5.29 µM and 3.19 µM. For the same compound, the TGI [8] was > 10 µM and 26.2 µM, the GI50 [9] was 1.36 µM and 1.68 µM and the TGI [9] was > 10 µM and 12.4 µM. The GI50 [10] was 5.47 µM and 4.04 µM and the TGI [10] was over 58.5 µM.
